The assay deals with Metabotropic glutamate receptor 5 (Rattus norvegicus, UniProt P31424). Briefly: Functional Calcium Flux Assay: For functional assays, HEK293 cells stably expressing recombinant rat mGluR5 were seeded in 384-well plates and dye loaded using Fluo-8. Cells were then washed to remove the un-incorporated dye. Antagonist evaluation was performed following a 15 min incubation of the test compound followed by the addition of submaximal concentration of glutamate. Intracellular calcium ([Ca2+]i) measurements were performed using a fluorometric imaging plate reader (FLIPR, Molecular Devices). The glutamate-evoked increase in [Ca2+]i in the presence of the test compounds was compared to the response to glutamate alone (the positive control). Antagonist inhibition curves were fitted with a 4-parameter logistic equation giving IC50 values, and Hill coefficients using an iterative nonlinear curve fitting algorithm.
Chain of Metabotropic glutamate receptor 5 (P31424 whole entry): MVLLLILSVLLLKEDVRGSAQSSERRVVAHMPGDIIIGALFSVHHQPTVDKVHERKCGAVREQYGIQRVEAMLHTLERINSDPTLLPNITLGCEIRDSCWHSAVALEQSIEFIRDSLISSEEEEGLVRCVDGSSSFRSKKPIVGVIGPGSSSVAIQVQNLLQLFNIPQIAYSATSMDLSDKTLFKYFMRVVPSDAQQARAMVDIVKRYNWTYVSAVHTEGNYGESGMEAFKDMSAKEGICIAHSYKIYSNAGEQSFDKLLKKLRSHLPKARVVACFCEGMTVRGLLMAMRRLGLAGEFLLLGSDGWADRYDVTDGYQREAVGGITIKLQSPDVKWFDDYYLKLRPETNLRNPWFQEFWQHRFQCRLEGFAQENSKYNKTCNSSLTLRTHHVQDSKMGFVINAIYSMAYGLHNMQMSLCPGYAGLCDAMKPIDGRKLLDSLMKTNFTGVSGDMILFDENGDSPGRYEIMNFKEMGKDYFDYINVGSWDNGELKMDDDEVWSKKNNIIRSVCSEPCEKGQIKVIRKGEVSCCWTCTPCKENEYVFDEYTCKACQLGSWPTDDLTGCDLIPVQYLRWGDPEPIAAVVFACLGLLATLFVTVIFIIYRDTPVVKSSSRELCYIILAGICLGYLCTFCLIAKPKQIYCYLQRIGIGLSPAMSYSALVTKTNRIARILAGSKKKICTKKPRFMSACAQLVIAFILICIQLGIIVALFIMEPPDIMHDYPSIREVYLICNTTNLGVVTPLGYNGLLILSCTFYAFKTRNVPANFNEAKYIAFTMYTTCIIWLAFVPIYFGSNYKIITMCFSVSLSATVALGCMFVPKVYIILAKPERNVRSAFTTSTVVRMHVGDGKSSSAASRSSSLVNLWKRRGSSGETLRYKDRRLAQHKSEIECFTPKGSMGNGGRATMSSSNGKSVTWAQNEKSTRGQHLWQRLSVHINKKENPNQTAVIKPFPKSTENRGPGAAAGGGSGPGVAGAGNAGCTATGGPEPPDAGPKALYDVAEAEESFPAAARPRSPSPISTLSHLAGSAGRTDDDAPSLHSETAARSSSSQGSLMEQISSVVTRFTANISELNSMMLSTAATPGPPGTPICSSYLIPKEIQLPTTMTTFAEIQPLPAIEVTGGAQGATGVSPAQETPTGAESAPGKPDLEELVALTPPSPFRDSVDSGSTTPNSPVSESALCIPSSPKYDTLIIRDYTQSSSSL

pIC50: −log10 of the molar value.

Data on 1 compound can be found in ChEMBL document CHEMBL5727120, “Substituted pyrrolidines as mGluR5 antagonists” (2019).

Usually pIC50 stands for the negative decadic logarithm of the IC50, by convention in mol/L.

`N#Cc1cc(F)cc(N2CC3CC3(C#Cc3cccc(Cl)n3)C2)c1` (stereo unspecified): the pIC50 was more than 6.30.
